Structures can show the parent of a compound that is named as a salt.
How the values were obtained:
[1] = biological target: Kelch domain of human KEAP1 (321-624 aa) (Homo sapiens (Human), UniProt Q14145); assay: KEAP1 KELCH ThermoFluor binding assay; details: KEAP Kelch […], 1,8-ANS, pH 7.0, average of results obtained, read-out: Tf Kd;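 also: Ligand-induced melting temperature shift of E. coli-expressed KEAP1 Kelch protein, Kd estimated from concentration-response curves of ΔTm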
[2] = system: Glo-Response ARE-luc2P HEK293 cell line; assay: ARE luciferase reporter cell-based assay; details: average of results obtained;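 also: luciferase signal tracks Nrf2 activation of the ARE once compounds disrupt KEAP1-Nrf2 binding, read with One-Glo reagent, DMSO serving as low control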

Kelch domain of human KEAP1 (321-624 aa), sequence (Q14145 321-624): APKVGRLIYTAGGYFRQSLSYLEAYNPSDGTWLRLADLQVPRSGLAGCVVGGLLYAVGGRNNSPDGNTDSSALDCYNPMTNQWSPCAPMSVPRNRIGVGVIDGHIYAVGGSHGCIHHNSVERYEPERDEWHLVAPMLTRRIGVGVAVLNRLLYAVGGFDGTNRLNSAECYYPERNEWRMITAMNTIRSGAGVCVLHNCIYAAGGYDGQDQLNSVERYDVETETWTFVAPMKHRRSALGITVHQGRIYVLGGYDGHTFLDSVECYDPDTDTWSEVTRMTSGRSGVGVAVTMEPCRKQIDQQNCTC

Kd [1]	Structure (SMILES)	EC50 ([2]; Homo sapiens, HEK293, 24 h)	EC50 ([2]; 24 hours)
< 1 nM	CCn1nnc2c(C)c(C(CC(=O)O)c3ccc(C)c(CN4C[C@@H]5CCCN5c5ncccc5S4(=O)=O)c3)ccc21 (mixture of isomers) [Example 155, (R/S)-3-(3-(((S)-5,5-Dioxido-7a,8,9,10-tetrahydropyrido[2,3-f]pyrrolo[2,1-d][1,2,5]thiadiazepin-6(7H)-yl)methyl)-4-methylphenyl)-3-(1-ethyl-4-methyl-1H-benzo[d][1,2,3]triazol-5-yl)propanoic Acid]	6.1 nM	
< 1 nM	Cc1ccc(C(CC(=O)O)c2ccn3c(C4CC4)nnc3c2C)cc1CN1C[C@H]2CCCN2c2ncccc2S1(=O)=O (mixture of isomers) [Example 167, (R/S)-3-(3-Cyclopropyl-8-methyl-[1,2,4]triazolo[4,3-a]pyridin-7-yl)-3-(3-(((R)-5,5-dioxido-7a,8,9,10-tetrahydropyrido[2,3-f]pyrrolo[2,1-d][1,2,5]thiadiazepin-6(7H)-yl)methyl)-4-methylphenyl)propanoic Acid]	1140 nM	
< 1 nM	CC[C@@H]1CN(Cc2nc(C(CC(=O)O)c3ccc4c(nnn4C4CC4)c3C)ccc2C)S(=O)(=O)c2cccnc2O1 (mixture of isomers) [Example 174, (R/S)-3-(1-Cyclopropyl-4-methyl-1H-benzo[d][1,2,3]triazol-5-yl)-3-(6-(((R)-4-ethyl-1,1-dioxido-3,4-dihydro-2H-pyrido[2,3-b][1,4,5]oxathiazepin-2-yl)methyl)-5-methylpyridin-2-yl)propanoic Acid]	15 nM	
< 1 nM	CC[C@@H]1CN(Cc2cc(C(CC(=O)O)c3cc(OC(F)F)c4c(c3)nnn4C)ccc2C)S(=O)(=O)c2cccnc2O1 (mixture of isomers) [Example 249, 3-(7-(Difluoromethoxy)-1-methyl-1H-benzo[d][1,2,3]triazol-5-yl)-3-(3-(((R)-4-ethyl-1,1-dioxido-3,4-dihydro-2H-pyrido[2,3-b][1,4,5]oxathiazepin-2-yl)methyl)-4-methylphenyl)propanoic Acid and its Trifluoroacetic Acid Salt]	28.6 nM	
< 1 nM	Cc1cnc2c(c1)S(=O)(=O)N(Cc1cc([C@H](c3ccn4c(C(F)(F)F)nnc4c3C)C(C)(C)C(=O)O)cnc1C)CC1(CC1)O2 (single isomer, unassigned) [Example 573, (*S)-2,2-Dimethyl-3-(8-methyl-3-(trifluoromethyl)-[1,2,4]triazolo[4,3-a]pyridin-7-yl)-3-(6-methyl-5-((8′-methyl-1′,1′-dioxidospiro[cyclopropane-1,4′-pyrido[2,3-b][1,4,5]oxathiazepin]-2′(3′H)-yl)methyl)pyridin-3-yl)propanoic Acid]		
6750 nM	Cc1cnc2c(c1)S(=O)(=O)N(Cc1cc(C(c3ccn4c(C(F)(F)F)nnc4c3C)C(C)(C)C(=O)O)cnc1C)CC1(CC1)O2 (single isomer, unassigned) [Example 574, (*R)-2,2-Dimethyl-3-(8-methyl-3-(trifluoromethyl)-[1,2,4]triazolo[4,3-a]pyridin-7-yl)-3-(6-methyl-5-((8′-methyl-1′,1′-dioxidospiro[cyclopropane-1,4′-pyrido[2,3-b][1,4,5]oxathiazepin]-2′(3′H)-yl)methyl)pyridin-3-yl)propanoic Acid]		
< 1 nM	Cc1ccc([C@@H](c2ccc3c(nnn3C3CC3)c2C)C(C)(C)C(=O)O)cc1CN1CC2(CC2)Oc2nc(N[C@@H](C)CN3CCCCC3)c(C)cc2S1(=O)=O (single isomer, unassigned) [Example 659, (*S)-3-(1-Cyclopropyl-4-methyl-1H-benzo[d][1,2,3]triazol-5-yl)-2,2-dimethyl-3-(4-methyl-3-((8′-methyl-1′,1′-dioxido-7′-(((S)-1-(piperidin-1-yl)propan-2-yl)amino)spiro[cyclopropane-1,4′-pyrido[2,3-b][1,4,5]oxathiazepin]-2′(3′H)-yl)methyl)phenyl)propanoic Acid]		

More lines, now with the values behind:

Structure (SMILES)	Kd [1]	EC50 ([2]; Homo sapiens, HEK293, 24 h)	EC50 ([2]; 24 hours)
CC[C@@H]1CN(Cc2cc(C(CC(=O)O)c3ccn4c(C)nnc4c3)ccc2C)S(=O)(=O)c2cccnc2O1 (mixture of isomers) [Example 162, (R/S)-3-(3-(((R)-4-Ethyl-1,1-dioxido-3,4-dihydro-2H-pyrido[2,3-b][1,4,5]oxathiazepin-2-yl)methyl)-4-methylphenyl)-3-(3-methyl-[1,2,4]triazolo[4,3-a]pyridin-7-yl)propanoic Acid]	< 1 nM	2440 nM	
CC[C@@H]1CN(Cc2cc(C(CC(=O)O)c3ccn4c(C(F)(F)F)nnc4c3C)ccc2C)S(=O)(=O)c2cccnc2O1 (mixture of isomers) [Example 188, (R/S)-3-(3-(((R)-4-ethyl-1,1-dioxido-3,4-dihydro-2H-pyrido[2,3-b][1,4,5]oxathiazepin-2-yl)methyl)-4-methylphenyl)-3-(8-methyl-3-(trifluoromethyl)-[1,2,4]triazolo[4,3-a]pyridin-7-yl)propanoic acid]	< 1 nM	17 nM	
Cc1ccc(C(CC(=O)O)c2ccc3c(nnn3C3CC3)c2C)cc1CN1C[C@H]2CCCN2c2ncccc2S1(=O)=O (mixture of isomers) [Example 209, (R/S)-3-(1-Cyclopropyl-4-methyl-1H-benzo[d][1,2,3]triazol-5-yl)-3-(3-(((R)-5,5-dioxido-7a,8,9,10-tetrahydropyrido[2,3-f]pyrrolo[2,1-d][1,2,5]thiadiazepin-6(7H)-yl)methyl)-4-methylphenyl)propanoic Acid]	< 1 nM	8.8 nM	
Cc1ccc(C(CC(=O)O)c2cc(OC(F)F)c3c(c2)nnn3C)cc1CN1C[C@H]2CCCN2c2ncccc2S1(=O)=O (mixture of isomers) [Example 246, 3-(7-(Difluoromethoxy)-1-methyl-1H-benzo[d][1,2,3]triazol-5-yl)-3-(3-(((R)-5,5-dioxido-7a,8,9,10-tetrahydropyrido[2,3-f]pyrrolo[2,1-d][1,2,5]thiadiazepin-6(7H)-yl)methyl)-4-methylphenyl)propanoic Acid and its Trifluoroacetic Acid Salt]	< 1 nM	87.3 nM	
Cc1ccc([C@@H](c2ccn3c(C(F)(F)F)nnc3c2C)C(C)(C)C(=O)O)cc1CN1CC2(CC2)Oc2nc(OCCN3CCC(F)CC3)c(C)cc2S1(=O)=O (single isomer, unassigned) [Example 661, (*S)-3-(3-((7′-(2-(4-fluoropiperidin-1-yl)ethoxy)-8′-methyl-1′,1′-dioxidospiro[cyclopropane-1,4′-pyrido[2,3-b][1,4,5]oxathiazepin]-2′(3′H)-yl)methyl)-4-methylphenyl)-2,2-dimethyl-3-(8-methyl-3-(trifluoromethyl)-[1,2,4]triazolo[4,3-a]pyridine-7-yl)propanoic Acid]	< 1 nM		
Cc1cnc2c(c1)S(=O)(=O)N(Cc1cc(C(c3ccn4c(C(F)(F)F)nnc4c3C)C(C)(C)C(=O)O)ccc1C)CC1(CCOCC1)O2 (stereo not shown) [Example 17, 2,2-Dimethyl-3-(4-methyl-3-((8′-methyl-1′,1′-dioxido-2,3,5,6-tetrahydrospiro[pyran-4,4′-pyrido[2,3-b][1,4,5]oxathiazepin]-2′(3′H)-yl)methyl)phenyl)-3-(8-methyl-3-(trifluoromethyl)-[1,2,4]triazolo[4,3-a]pyridin-7-yl)propanoic Acid]		3.6 nM	
Cc1c(C(CC(=O)O)c2ccc(Cl)c(CN3CC4(COC4)Oc4ccccc4S3(=O)=O)c2)ccn2c(C(F)(F)F)nnc12 (stereo not shown) [Example 95]		1080 nM	
Cc1ccc(C(c2ccn3c(C(F)(F)F)nnc3c2C)C(C)(C)C(=O)O)cc1CN1CC2(CCOCC2)Oc2nc(NCCCO)ccc2S1(=O)=O (stereo not shown) [Example 114]		145 nM	
Cc1cnc2c(c1)S(=O)(=O)N(Cc1cc(C(c3ccn4c(C(F)(F)F)nnc4c3C)C(C)(C)C(=O)O)ccc1C)CC1(CC1)O2 (stereo not shown) [Example 313, 2,2-Dimethyl-3-(4-methyl-3-((8′-methyl-1′,1′-dioxidospiro[cyclopropane-1,4′-pyrido[2,3-b][1,4,5]oxathiazepin]-2′(3′H)-yl)methyl)phenyl)-3-(8-methyl-3-(trifluoromethyl)-[1,2,4]triazolo[4,3-a]pyridin-7-yl)propanoic Acid]		1.1 nM	
Cc1ccc(C(c2ccn3c(C(F)(F)F)nnc3c2C)C(C)(C)C(=O)O)cc1CN1CC2(CC2)Oc2ncccc2S1(=O)=O (stereo not shown) [Example 316, 3-(3-((1′,1′-Dioxidospiro[cyclopropane-1,4′-pyrido[2,3-b][1,4,5]oxathiazepin]-2′(3′H)-yl)methyl)-4-methylphenyl)-2,2-dimethyl-3-(8-methyl-3-(trifluoromethyl)-[1,2,4]triazolo[4,3-a]pyridin-7-yl)propanoic Acid]		1.3 nM	
Cc1ccc(C(c2ccn3c(C(F)(F)F)nnc3c2)C(C)(C)C(=O)O)cc1CN1CC2(CCOCC2)Oc2ncccc2S1(=O)=O (stereo not shown) [Example 319, 3-(3-((1′,1′-Dioxido-2,3,5,6-tetrahydrospiro[pyran-4,4′-pyrido[2,3-b][1,4,5]oxathiazepin]-2′(3′H)-yl)methyl)-4-methylphenyl)-2,2-dimethyl-3-(3-(trifluoromethyl)-[1,2,4]triazolo[4,3-a]pyridin-7-yl)propanoic Acid]		44.5 nM	
Cc1cnc2c(c1)S(=O)(=O)N(Cc1cc(C(c3ccn4c(C(F)(F)F)nnc4c3)C(C)(C)C(=O)O)ccc1C)CC1(CC1)O2 (stereo not shown) [Example 322, 2,2-Dimethyl-3-(4-methyl-3-((8′-methyl-1′,1′-dioxidospiro[cyclopropane-1,4′-pyrido[2,3-b][1,4,5]oxathiazepin]-2′(3′H)-yl)methyl)phenyl)-3-(3-(trifluoromethyl)-[1,2,4]triazolo[4,3-a]pyridin-7-yl)propanoic Acid]		22.4 nM	
Cc1cnc2c(c1)S(=O)(=O)N(Cc1cc(C(c3ccn4c(C(F)(F)F)nnc4c3C)C(C)(C)C(=O)O)ccc1C)CC1(CCOCC1)O2 (stereo not shown) [Example 406, 2,2-Dimethyl-3-(4-methyl-3-((8′-methyl-1′,1′-dioxido-2,3,5,6-tetrahydrospiro[pyran-4,4′-pyrido[2,3-b][1,4,5]oxathiazepin]-2′(3′H)-yl)methyl)phenyl)-3-(8-methyl-3-(trifluoromethyl)-[1,2,4]triazolo[4,3-a]pyridin-7-yl)propanoic Acid]			3.6 nM
